Laboratory results reported in BindingDB's records for patent US11912686 (Gilead Sciences, 2024).
pEC50: −log10 of the molar value.

Target: Lysophosphatidic acid receptor 1 (Homo sapiens, UniProt Q92633)
Assay: Calcium Mobilization Assay
Protocol: For agonist dose curves, cells were removed from the incubator 2 hours after dye loading and transferred to the FLIPR Tetra instrument (Molecular Devices, San Jose, CA). […] After dye loading, cells were removed from the incubator and 0.3 μL of 200× antagonist was added. Cells were incubated for 60 minutes at 37° C. Antagonist activity was measured on a FLIPR Tetra. Calcium mobilization was monitored for 3.5 minutes and 10 μL 6× EC80 LPA in HBSS, 20 mM HEPES, and 0.1% BSA was added to the cells 5 seconds into the assay. Signal amplitude (Maximum minus minimum) values were plotted against log10 of antagonist concentration using Dose Response T

Lysophosphatidic acid receptor 1, sequence (Q92633 whole entry): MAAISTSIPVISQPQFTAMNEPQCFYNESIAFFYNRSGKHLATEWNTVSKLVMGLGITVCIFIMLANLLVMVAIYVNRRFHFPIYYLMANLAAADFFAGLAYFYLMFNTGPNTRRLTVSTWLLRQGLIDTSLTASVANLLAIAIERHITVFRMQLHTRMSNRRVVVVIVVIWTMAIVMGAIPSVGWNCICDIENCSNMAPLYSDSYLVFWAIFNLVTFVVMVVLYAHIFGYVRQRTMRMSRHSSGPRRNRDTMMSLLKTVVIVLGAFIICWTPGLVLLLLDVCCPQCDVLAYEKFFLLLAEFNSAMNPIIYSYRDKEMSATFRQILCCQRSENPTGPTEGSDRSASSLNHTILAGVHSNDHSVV

Row | SMILES | pEC50
1 | CCNC(=O)Nc1ccc(-c2nnn(C)c2NC(=O)O[C@H](C)c2cccnc2Cl)cn1 [US11912686, Compound 4] | ≤ 5.00
2 | C[C@@H](OC(=O)Nc1c(-c2ccc(NC(=O)[C@H]3C[C@@](F)(C#N)C3)cn2)nnn1C)c1cccnc1Cl [US11912686, Compound 185] | 5.77
3 | C[C@@H](OC(=O)Nc1c(-c2ccc(NC(=O)N3CCOCC3)cn2)nnn1C)c1cccnc1Cl [US11912686, Compound 189] | 6.00
